Values of other authors, collected in patent US20230321462A1, “Method for Improving Olfactory Sensitivity” (Kao Corporation, priority 2019, published 2023).

Key:
Settings in all cases: Table 3; cited from earlier work
OR51D1 = target: T1, OR51D1 (Homo sapiens, UniProt Q8NGF3)
T1 sequence (Q8NGF3 1-324): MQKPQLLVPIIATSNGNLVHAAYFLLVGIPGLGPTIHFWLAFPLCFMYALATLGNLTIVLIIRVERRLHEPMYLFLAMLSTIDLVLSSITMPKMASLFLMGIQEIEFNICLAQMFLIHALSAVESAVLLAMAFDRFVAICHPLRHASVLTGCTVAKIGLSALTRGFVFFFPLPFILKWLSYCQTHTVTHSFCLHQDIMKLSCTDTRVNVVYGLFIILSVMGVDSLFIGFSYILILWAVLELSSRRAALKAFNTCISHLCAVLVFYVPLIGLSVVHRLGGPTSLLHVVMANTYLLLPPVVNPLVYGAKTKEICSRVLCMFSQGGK

OR2T1 = target: T2, OR2T1 (Homo sapiens, UniProt O43869)
T2 sequence (O43869 1-369): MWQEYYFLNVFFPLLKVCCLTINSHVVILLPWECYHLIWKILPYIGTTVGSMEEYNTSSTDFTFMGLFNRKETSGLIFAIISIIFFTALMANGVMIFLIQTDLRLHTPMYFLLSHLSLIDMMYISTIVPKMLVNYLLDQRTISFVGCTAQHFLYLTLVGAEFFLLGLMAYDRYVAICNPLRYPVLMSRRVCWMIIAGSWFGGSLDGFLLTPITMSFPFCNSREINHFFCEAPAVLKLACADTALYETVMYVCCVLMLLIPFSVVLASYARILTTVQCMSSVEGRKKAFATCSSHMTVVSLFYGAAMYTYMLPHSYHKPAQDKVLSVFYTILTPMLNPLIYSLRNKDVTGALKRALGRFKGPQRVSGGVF

OR7G2 = target: T3, OR7G2 (Homo sapiens, UniProt Q8NG99)
T3 sequence (Q8NG99 1-324): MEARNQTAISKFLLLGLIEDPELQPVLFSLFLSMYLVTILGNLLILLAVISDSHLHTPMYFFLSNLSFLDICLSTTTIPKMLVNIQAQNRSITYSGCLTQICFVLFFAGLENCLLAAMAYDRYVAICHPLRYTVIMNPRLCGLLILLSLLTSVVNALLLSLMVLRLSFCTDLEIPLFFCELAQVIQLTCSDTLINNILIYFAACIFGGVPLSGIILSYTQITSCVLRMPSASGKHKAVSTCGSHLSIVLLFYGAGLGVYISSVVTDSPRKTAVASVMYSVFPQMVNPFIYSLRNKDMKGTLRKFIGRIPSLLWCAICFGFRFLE

OR5Al1 = target: T4, OR5Al1 (Homo sapiens, UniProt P0C617)
T4 sequence (P0C617 1-329): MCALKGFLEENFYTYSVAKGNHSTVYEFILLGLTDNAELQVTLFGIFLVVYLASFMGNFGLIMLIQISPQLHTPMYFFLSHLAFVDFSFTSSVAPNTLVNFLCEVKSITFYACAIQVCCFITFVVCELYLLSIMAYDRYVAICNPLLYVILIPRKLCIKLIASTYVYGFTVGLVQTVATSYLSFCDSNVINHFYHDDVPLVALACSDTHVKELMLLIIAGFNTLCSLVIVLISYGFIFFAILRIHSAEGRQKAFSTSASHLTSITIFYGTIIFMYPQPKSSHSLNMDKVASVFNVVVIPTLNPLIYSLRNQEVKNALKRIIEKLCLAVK

CCCC(=O)O [Butyric acid]
recognized by: recognition by OR51D1 (OR51D1) | recognition by OR2T1 (OR2T1) | recognition by OR7G2 (OR7G2) | recognition by OR5Al1 (OR5Al1)
